According to patent publication US10281476B2, “Methods to identify modulators of RyR calcium channels” (REGENTS OF THE UNIVERSITY OF MINNESOTA, priority 2013, dated 2019):
Where no end group is shown, it is not given here.

How the values were obtained:
[1] = test system: permeabilized cardiomyocytes; assay: Ca2+ sparks and SR Ca2+ content in permeabilized myocytes; type: cell-based, rat
Procedure: Myocytes were permeabilized with saponin (50μg/mL) for 60 seconds and placed in internal solution composed of EGTA 0.5 mmol/L; HEPES 10 mmol/L; Kaspartate 120 mmol/L; ATP 5 mmol/L; free MgCl2 1 mmol/L, reduced glutathione 10 mmol/L; and free [Ca2+] 50nmol/L (calculated using MaxChelator), creatine phosphokinase 5 U/mL, phosphocreatine 10 mmol/L, dextran 4% Fluo-4 0.025 mmol/L, pH 7.2. Ca2+sparks were recorded by a laser scanning confocal microscope (RADIANCE2000™ MP, Bio-Rad, UK) as previously described (Li et al., Circ Res, 2002; 90:309-316). Fluo-4 was excited at 488 nm and emission was recorded using 500/530 nm bandpass filter. To assess SR Ca2+content, caffeine (15 mmol/L) was rapidly perfused. Ca2+spark were analyzed as using SparkMaster (Picht et al., Am J Physiol Cell Physiol, 2007; 293:C1073-C1081).
Next, we asked whether RyR2 is activated by DPc10 and whether FKBP12.6 or CaM can prevent this. We assessed Ca^2+ sparks in permeabilized myocytes perfused with internal solution containing 50 nmol/L free Ca^2+ plus 1 μmol/L autocamtide-2-related inhibitory peptide (to inhibit CaMKII activity). Line-scan images were recorded after 3-hour incubations under control conditions and in the presence of 5 μmol/L DPc10, with or without 1 μmol/L CaM or 100 nmol/L FKBP12.6 (FIG. 14D).

RyR2 = RyR2 (Rattus norvegicus, UniProt B0LPN4); assay: Fluorescent FKBP12.6 binding at the Z-line of permeabilized myocytes; set-up: These fluorescent proteins were added to saponin-permeabilized myocytes with or without pre-equilibration with saturating DPc10 concentration; endogenous in cells; host or cells: saponin-permeabilized rat ventricular myocytes
Chain of RyR2 (B0LPN4 whole entry): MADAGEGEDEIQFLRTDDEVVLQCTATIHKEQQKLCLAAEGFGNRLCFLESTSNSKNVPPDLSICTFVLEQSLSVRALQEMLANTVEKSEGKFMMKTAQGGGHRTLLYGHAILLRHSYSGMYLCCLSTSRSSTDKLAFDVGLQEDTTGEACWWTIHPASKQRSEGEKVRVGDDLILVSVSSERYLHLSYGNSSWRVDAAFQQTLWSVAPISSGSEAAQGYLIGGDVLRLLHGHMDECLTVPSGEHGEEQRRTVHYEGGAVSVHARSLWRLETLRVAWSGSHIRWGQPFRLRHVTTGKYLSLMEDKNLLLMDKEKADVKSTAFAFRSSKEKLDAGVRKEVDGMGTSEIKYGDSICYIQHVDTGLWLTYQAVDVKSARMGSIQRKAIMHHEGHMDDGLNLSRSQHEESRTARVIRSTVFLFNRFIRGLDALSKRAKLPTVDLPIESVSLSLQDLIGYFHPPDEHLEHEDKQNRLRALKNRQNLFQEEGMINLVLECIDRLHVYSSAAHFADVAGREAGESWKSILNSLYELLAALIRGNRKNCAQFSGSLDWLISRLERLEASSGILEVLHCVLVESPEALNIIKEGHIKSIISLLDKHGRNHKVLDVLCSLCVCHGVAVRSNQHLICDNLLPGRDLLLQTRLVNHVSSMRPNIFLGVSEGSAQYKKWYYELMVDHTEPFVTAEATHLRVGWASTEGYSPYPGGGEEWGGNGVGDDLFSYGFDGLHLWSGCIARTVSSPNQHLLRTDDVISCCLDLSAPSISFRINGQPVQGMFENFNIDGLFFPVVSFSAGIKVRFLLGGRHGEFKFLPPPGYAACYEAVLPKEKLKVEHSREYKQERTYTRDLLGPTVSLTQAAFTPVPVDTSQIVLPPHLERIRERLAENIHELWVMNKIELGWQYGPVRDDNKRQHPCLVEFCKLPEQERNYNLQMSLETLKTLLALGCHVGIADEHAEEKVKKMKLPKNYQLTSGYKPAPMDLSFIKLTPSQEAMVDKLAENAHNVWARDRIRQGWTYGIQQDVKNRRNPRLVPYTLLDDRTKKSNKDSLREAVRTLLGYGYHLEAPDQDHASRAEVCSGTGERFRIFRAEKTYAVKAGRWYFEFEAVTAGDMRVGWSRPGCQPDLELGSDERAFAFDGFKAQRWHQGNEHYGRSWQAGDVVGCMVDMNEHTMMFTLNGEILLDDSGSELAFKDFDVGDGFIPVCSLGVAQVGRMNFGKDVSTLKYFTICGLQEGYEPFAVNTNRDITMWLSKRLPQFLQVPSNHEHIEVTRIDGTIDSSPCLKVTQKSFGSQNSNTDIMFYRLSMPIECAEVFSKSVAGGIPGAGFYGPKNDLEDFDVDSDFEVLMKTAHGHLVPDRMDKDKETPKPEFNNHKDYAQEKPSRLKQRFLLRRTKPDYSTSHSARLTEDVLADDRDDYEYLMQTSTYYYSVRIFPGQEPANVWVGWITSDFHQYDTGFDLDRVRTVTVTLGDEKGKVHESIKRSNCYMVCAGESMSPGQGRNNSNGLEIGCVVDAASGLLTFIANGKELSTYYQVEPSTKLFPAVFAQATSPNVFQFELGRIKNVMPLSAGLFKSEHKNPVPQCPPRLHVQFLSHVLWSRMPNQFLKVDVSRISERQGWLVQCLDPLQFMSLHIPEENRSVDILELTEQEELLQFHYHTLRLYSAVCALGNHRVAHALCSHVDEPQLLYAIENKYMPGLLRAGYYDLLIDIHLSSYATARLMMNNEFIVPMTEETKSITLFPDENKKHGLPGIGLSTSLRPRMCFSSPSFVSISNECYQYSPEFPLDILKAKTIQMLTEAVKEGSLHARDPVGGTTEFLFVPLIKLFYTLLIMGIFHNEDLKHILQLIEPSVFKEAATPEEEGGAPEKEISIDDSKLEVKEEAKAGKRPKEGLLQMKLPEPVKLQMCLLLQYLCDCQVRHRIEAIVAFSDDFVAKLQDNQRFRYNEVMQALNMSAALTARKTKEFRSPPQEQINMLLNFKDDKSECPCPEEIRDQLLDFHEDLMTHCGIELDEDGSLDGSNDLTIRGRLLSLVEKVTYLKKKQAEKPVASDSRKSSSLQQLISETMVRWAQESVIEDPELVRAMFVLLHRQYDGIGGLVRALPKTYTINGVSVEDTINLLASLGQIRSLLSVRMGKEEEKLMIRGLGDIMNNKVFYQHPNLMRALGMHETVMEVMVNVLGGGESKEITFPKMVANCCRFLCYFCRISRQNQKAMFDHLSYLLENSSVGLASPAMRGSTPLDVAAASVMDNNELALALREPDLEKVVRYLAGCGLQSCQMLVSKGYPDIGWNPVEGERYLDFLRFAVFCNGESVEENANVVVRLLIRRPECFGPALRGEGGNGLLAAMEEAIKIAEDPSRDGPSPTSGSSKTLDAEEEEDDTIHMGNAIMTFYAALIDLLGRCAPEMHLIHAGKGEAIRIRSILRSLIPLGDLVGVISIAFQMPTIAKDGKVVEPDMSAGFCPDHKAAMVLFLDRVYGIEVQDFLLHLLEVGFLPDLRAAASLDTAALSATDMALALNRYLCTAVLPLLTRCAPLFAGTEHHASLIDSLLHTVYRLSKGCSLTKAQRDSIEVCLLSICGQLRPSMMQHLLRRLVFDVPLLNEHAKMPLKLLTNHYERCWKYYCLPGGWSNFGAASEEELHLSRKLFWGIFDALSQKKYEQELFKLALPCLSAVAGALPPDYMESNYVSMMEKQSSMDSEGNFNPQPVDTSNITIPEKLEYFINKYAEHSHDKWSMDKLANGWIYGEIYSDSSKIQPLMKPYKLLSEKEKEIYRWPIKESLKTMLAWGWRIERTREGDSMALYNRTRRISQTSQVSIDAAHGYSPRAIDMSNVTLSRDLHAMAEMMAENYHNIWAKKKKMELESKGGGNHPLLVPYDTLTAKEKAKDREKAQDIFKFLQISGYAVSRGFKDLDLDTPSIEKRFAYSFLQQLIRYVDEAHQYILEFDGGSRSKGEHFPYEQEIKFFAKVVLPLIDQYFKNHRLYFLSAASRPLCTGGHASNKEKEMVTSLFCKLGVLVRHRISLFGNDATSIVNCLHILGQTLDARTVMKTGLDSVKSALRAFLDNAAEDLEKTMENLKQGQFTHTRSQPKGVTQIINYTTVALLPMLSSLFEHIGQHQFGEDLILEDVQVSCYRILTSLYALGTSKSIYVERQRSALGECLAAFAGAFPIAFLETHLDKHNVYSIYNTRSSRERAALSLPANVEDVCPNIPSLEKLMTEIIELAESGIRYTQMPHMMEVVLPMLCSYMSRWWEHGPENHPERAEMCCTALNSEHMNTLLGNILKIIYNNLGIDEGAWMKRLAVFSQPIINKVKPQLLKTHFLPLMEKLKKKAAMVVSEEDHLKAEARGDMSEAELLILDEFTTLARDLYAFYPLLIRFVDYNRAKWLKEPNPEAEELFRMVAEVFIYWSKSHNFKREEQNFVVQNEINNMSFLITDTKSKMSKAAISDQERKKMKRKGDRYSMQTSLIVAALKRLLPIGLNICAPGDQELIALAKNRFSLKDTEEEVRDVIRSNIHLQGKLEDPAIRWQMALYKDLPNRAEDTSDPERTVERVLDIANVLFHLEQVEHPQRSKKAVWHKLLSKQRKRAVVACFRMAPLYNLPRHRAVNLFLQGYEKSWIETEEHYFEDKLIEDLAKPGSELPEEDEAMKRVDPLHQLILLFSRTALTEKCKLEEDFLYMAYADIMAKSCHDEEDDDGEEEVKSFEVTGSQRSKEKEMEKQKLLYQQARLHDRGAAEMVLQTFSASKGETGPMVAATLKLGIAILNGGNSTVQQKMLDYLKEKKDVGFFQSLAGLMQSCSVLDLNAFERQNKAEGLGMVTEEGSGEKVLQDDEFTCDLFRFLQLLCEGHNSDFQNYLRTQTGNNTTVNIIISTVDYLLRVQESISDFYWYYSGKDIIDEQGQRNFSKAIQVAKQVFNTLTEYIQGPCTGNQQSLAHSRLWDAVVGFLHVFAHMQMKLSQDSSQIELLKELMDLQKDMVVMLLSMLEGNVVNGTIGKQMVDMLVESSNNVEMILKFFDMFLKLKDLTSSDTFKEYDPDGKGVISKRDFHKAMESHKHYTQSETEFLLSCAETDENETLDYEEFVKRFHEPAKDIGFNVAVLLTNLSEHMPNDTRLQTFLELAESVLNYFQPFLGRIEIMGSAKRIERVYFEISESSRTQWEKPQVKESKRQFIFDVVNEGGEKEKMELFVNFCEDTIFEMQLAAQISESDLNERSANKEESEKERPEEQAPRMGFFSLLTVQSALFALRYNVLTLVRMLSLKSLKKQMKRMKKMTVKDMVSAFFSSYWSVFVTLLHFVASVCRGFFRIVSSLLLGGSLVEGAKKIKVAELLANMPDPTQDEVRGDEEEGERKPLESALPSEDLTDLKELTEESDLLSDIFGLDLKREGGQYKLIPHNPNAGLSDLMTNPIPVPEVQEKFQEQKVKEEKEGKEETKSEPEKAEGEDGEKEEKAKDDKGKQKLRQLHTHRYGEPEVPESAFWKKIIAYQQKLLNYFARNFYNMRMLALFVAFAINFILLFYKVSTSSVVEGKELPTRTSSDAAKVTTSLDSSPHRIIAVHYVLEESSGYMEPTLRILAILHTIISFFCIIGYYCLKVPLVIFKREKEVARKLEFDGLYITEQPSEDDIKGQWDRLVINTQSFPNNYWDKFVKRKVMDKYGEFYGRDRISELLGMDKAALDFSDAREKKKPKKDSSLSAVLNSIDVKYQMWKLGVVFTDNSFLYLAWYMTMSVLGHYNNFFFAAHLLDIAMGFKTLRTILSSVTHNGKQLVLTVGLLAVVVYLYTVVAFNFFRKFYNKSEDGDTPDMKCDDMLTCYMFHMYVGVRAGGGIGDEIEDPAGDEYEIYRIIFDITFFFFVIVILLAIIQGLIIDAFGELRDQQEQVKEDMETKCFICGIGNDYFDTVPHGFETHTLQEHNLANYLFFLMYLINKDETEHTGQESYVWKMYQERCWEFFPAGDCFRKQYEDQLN
Chain of RyR2 (P68106 with tags, fused parts or gaps T15C/C23A/C77I partner): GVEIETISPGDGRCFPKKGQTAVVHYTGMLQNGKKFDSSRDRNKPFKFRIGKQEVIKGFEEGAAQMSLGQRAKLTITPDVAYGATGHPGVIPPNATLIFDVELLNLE
Procedure: These fluorescent proteins were added to saponin-permeabilized myocytes with or without pre-equilibration with saturating DPc10 concentration. […] We also did this with high [CaM] (500 nmol/L) that saturates RyR2 with CaM under control conditions (without DPc10; FIG. 17C). […] To test whether DPc10 and CaM bind at the same or nearby RyR2 sites, we measured FRET between CaM and DPc10.
FKBP12.6 can bind to and stabilize RyR2 channel gating, but details are controversial (Bers et al., Circ Res. 2012; 110:796-799). We measured the effect of H2O2 on FKBP12.6-RyR2 binding affinity in saponin-permeabilized myocytes using F-FKBP (Yang et al., Circ Res. 2014; 114:295-306; Cornea et al., Proc Natl Acad Sci USA. 2009; 106:6128-6133; Guo et al., Circ Res. 2010; 106:1743-1752; Guo et al., Biophys J. 2011; 101:2170-2177; Cornea et al., J Biol Chem. 2010; 285:19219-19226). […] We used 1 nmol/L F-FKBP (the its Kd) (Guo et al., Circ Res. 2010; 106:1743-1752), because at half-saturation it would be very sensitive to either an increase or decrease in RyR2 binding.

[2] = test system: rat intact cardiomyocytes; assay: Ca2+ transients in intact cardiomyocytes; type: cell-based; conditions: H2O2 50 μmol/L, dantrolene 1 μmol/L, 1 Hz
Procedure: Intact cardiomyocytes were loaded with Fluo-4 AM (5 μmol/L, Molecular Probes) for 15 min in NT solution (in mM): NaCl 140, KCl 4, MgCl2 1, CaCl2 2, glucose 10, HEPES 5, pH 7.4. Fluo-4 AM was excited at 488 nm and emission was recorded using a 500-530 nm bandpass filter. Ca^2+sparks were recorded after field stimulation at 1 Hz, and caffeine (10mmol/L) was rapidly perfused for assessing the SR Ca^2+content. Both Ca^2+sparks and SR Ca^2+content were recorded by using a laser scanning confocal microscope (RADIANCE2000™ MP, Bio-Rad, UK). Data were analyzed using SparkMaster, an automated analysis program that allows rapid and reliable spark analysis (Picht et al., J. Am J Physiol Cell Physiol. 2007;293:C1073-C1081). Spontaneous Ca^2+waves were recorded using a BZ9000 fluorescence digital microscope (Keyence, Japan), after 10 sec from field electric stimulation at 1,2,3,4 and 5 Hz, as described previously (Fukuda et al., Biochem Biophys Res Commun. 2014;448:1-7).
Oxidation induced by hydrogen peroxide (H2O2) is expected to activate SR Ca^2+ leak through RyR2 at diastolic [Ca]i (Wagner et al., Circ Res. 2011; 108:555-65; Yan et al., Cardiovasc Res. 2008; 77:432-41). We used line-scan images to measure the effects of 50 μM/L H2O2 on Ca^2+ spark frequency (CaSpF) and SR Ca^2+ content (evaluated via rapid caffeine application) in intact cardiomyocytes after 1 Hz electric field stimulation (FIG. 25). […] Thus H2O2 may enhance diastolic RyR2 channel opening. […] So CaSpF normalized to SR Ca^2+ content, was significant increase by H2O2 treatment of myocytes (FIG. 25C).

[3] = DPc10 5 μmol/L, FKBP12.6 100 nmol/L, CaM 1 μmol/L

## GFCPDHKAAMVLFLDRVYGIEVQDFLLHLLEVGFLP [DPc10]
[1]; 5 μmol/L DPc10, 3-hour incubation, 50 nmol/L free Ca2+, 1 μmol/L AIP
  Ca2+ spark frequency (CaSpF) vs control: robustly increased
[1]; [3]
  Ca2+ spark FDHM: 58.5 ± 1.00 ms
  Ca2+ spark FWHM: 1.34 ± 0.01 μm
  Ca2+ spark Peak (F/F0): 0.475 ± 0.004 F/F0
[1]; permeabilized myocytes
  SR Ca2+ content vs control (caffeine-induced Ca2+ release): significantly lower
RyR2; AF488-FKBP12.6 1 nmol/L, preincubation with 5 μmol/L DPc10
  effect on FKBP12.6 binding to RyR2: does not influence

## O=C1CN(/N=C/c2ccc(-c3ccc([N+](=O)[O-])cc3)o2)C(O)=N1 [dantrolene]
[2]
  Tau [Ca]i decline: 0.31 ± 0.01 s
  Δ [Ca]i twitch (ΔF/F0): 2.35 ± 0.16 ΔF/F0

## OO [H2O2, hydrogen peroxide]
[2]
  Tau [Ca]i decline: 0.32 ± 0.01 s
  Δ [Ca]i twitch (ΔF/F0): 2.56 ± 0.19 ΔF/F0
RyR2; 1 nmol/L F-FKBP, H2O2 50 μmol/L, with or without AIP or dantrolene
  effect on F-FKBP binding to the RyR2: failed to alter
